Data reported in the supplement of paper PMC13380429.

Legend:
Details in all cases: 72 h
U2OS [1] = assay: cell viability relative to DMSO; higher = less toxic
Vero E6 [2] = assay: as above
Calu-3 [3] = assay: as above
Caco-2 [4] = assay: as above
HepG2 [5] = assay: as above
U2OS [6] = assay: drug sensitivity score (DSS) for viability; higher = more toxic; extreme values may be limits of the assay
Vero E6 [7] = assay: as above
Calu-3 [8] = assay: as above
Caco-2 [9] = assay: as above
HepG2 [10] = assay: as above
U2OS [11] = assay: relative viability EC50 (midpoint between 100% and the lowest measured viability); higher = less toxic
Vero E6 [12] = assay: as above
Calu-3 [13] = assay: as above
Caco-2 [14] = assay: as above
HepG2 [15] = assay: as above

Compound	cell viability (U2OS [1]; 1 nM) [%]	cell viability (U2OS [1]; 10 nM) [%]	cell viability (U2OS [1]; 100 nM) [%]	cell viability (U2OS [1]; 1000 nM) [%]	cell viability (U2OS [1]; 10000 nM) [%]	cell viability (Vero E6 [2]; 1 nM) [%]	cell viability (Vero E6 [2]; 10 nM) [%]	cell viability (Vero E6 [2]; 100 nM) [%]	cell viability (Vero E6 [2]; 1000 nM) [%]	cell viability (Vero E6 [2]; 10000 nM) [%]	cell viability (Calu-3 [3]; 1 nM) [%]	cell viability (Calu-3 [3]; 10 nM) [%]	cell viability (Calu-3 [3]; 100 nM) [%]	cell viability (Calu-3 [3]; 1000 nM) [%]	cell viability (Calu-3 [3]; 10000 nM) [%]	cell viability (Caco-2 [4]; 1 nM) [%]	cell viability (Caco-2 [4]; 10 nM) [%]	cell viability (Caco-2 [4]; 100 nM) [%]	cell viability (Caco-2 [4]; 1000 nM) [%]	cell viability (Caco-2 [4]; 10000 nM) [%]	cell viability (HepG2 [5]; 1 nM) [%]	cell viability (HepG2 [5]; 10 nM) [%]	cell viability (HepG2 [5]; 100 nM) [%]	cell viability (HepG2 [5]; 1000 nM) [%]	cell viability (HepG2 [5]; 10000 nM) [%]	drug sensitivity score (U2OS [6])	drug sensitivity score (Vero E6 [7])	drug sensitivity score (Calu-3 [8])	drug sensitivity score (Caco-2 [9])	drug sensitivity score (HepG2 [10])	relative viability EC50 (U2OS [11]) [µM]	relative viability EC50 (Vero E6 [12]) [µM]	relative viability EC50 (Calu-3 [13]) [µM]	relative viability EC50 (Caco-2 [14]) [µM]	relative viability EC50 (HepG2 [15]) [µM]
COc1ccnc(C[S+]([O-])c2nc3cc(OC(F)F)ccc3[nH]2)c1OC (stereo not given) [pantoprazole]	109	105	102	101	99.3	95.4	97.1	91.7	91	99.2	99	99.1	98.4	95.9	94.8	99.5	104	98.7	103	89.4	106	107	111	99.2	117	0	0	0	0	0	> 10	> 10	> 10	> 10	> 10
CC(COc1ccccc1)N(CCCl)Cc1ccccc1 (stereo not given) [phenoxybenzamine]	96.3	102	93.4	114	93.6	102	98.3	101	97.9	94.3	96.5	109	106	101	95.8	86.6	92.7	102	95.9	86	101	106	88.7	89.4	96.5	0	0	0	0.5	0.6	> 10	> 10	> 10	> 10	> 10
CC(C)(N)Cc1ccccc1 [phentermine]	97.4	96	100	95.5	103	102	92.1	102	100	96.3	93.3	81	97.4	104	98.4	108	108	99.8	96.3	95.8	98.5	98.2	109	92.3	94.8	0	0	0	0	0	> 10	> 10	> 10	> 10	> 10
CCCCN1CCC(CNC(=O)c2c3n(c4ccccc24)CCCO3)CC1 [piboserod]	97.7	98.7	97.7	101	91.9	93.1	92.7	95	91.4	95.9	108	91.9	102	104	83	96	99.8	96.9	99	93.4	94.2	106	106	98.5	95.5	0	0	0.2	0	0	> 10	> 10	> 10	> 10	> 10
O=C(NNc1ccccc1)c1ccncc1 [plurisin-1]	103	96.3	101	99.9	99.6	102	108	106	96.7	95.4	97.9	96.6	93.2	103	106	106	106	105	91.6	101	110	109	104	114	77.8	0	0	0	0	0.4	> 10	> 10	> 10	> 10	> 10
CCCn1cnc2c1c(=O)n(CCCCC(C)=O)c(=O)n2C [propentofylline]	98.4	98.6	101	101	101	92.4	92.4	92.1	93.3	106	107	90.8	99	94.8	108	91.1	97.5	91.5	102	106	98.6	106	103	96.4	104	0	0	0	0	0	> 10	> 10	> 10	> 10	> 10
CCCOc1ccc(C(=O)OCCN(CC)CC)cc1N [proxymetacaine]	99.9	97	101	97.2	102	97.2	95.9	91.9	97.1	107	102	96.8	94.2	101	102	92.8	87	102	90	104	88.5	102	99.1	113	97.9	0	0	0	0	0	> 10	> 10	> 10	> 10	> 10
